Experimental data: PubChem BioAssay (NCI)
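Cells were grown in 96-well plates and exposed to each compound for 48 hours at five concentrations; endpoints were interpolated linearly between bracketing concentrations, or set to the highest concentration if not reached. GI50 = concentration required for 50% inhibition of growth. The concentration for full growth arrest is given as TGI.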

What was measured:
Experiment in all cases: inhibition of tumour cell growth, NCI panel, 48 h
[1] = test system: SF-539 CNS
[2] = test system: A498 renal
[3] = test system: NCI-H226 lung
[4] = test system: OVCAR-3 ovarian
[5] = test system: KM12 colon
[6] = test system: SK-OV-3 ovarian
[7] = test system: PC-3 prostate
[8] = test system: BT-549 breast
[9] = test system: COLO 205 colon
[10] = test system: T-47D breast
[11] = test system: SK-MEL-28 melanoma
[12] = test system: 786-0 renal
[13] = test system: HOP-92 NSCLC
[14] = test system: UO-31 renal
[15] = test system: OVCAR-8 ovarian
[16] = test system: SK-MEL-2 melanoma
[17] = test system: MDA-MB-435
[18] = test system: MCF7 breast
[19] = test system: EKVX NSCLC
[20] = test system: HS 578T breast
[21] = test system: HCT-116 colon
[22] = test system: NCI/ADR-RES ovarian
[23] = test system: UACC-257 melanoma
[24] = test system: OVCAR-5 ovarian
[25] = test system: HL-60(TB) leukemia
[26] = test system: HCC-2998 colon
[27] = test system: TK-10 renal
[28] = test system: LOX IMVI melanoma
[29] = test system: A549 NSCLC
[30] = test system: UACC-62 melanoma
[31] = test system: NCI-H460 lung
[32] = test system: CAKI-1 renal
[33] = test system: SF-295 CNS
[34] = test system: SK-MEL-5 melanoma
[35] = test system: SR leukemia
[36] = test system: MOLT-4 leukemia
[37] = test system: SN12C renal
[38] = test system: OVCAR-4 ovarian
[39] = test system: U251 CNS
[40] = test system: SF-268 CNS
[41] = test system: MALME-3M melanoma
[42] = test system: HOP-62 NSCLC
[43] = test system: HT29 colon
[44] = test system: IGROV1 ovarian
[45] = test system: HCT-15 colon
[46] = test system: NCI-H23 lung
[47] = test system: SW-620 colon
[48] = test system: RPMI-8226 leukemia
[49] = test system: SNB-75 CNS
[50] = test system: NCI-H522 lung
[51] = test system: MDA-MB-231 breast
[52] = test system: CCRF-CEM leukemia
[53] = test system: RXF 393 renal
[54] = test system: SNB-19 CNS
[55] = test system: DU-145 prostate
[56] = test system: ACHN renal

## Cc1cc2cc(Oc3ccnc(Nc4cccc(CS(=O)(=O)NCCN(C)C)c4)n3)ccc2[nH]1
[1]
  GI50: 3.05 µM
  TGI: 13.3 µM
[2]
  GI50: 1040 nM
  TGI: 4.19 µM
[3]
  GI50: 7.25 µM
  TGI: 22.1 µM
[4]
  GI50: 4.3 µM
  TGI: 15.8 µM
[5]
  GI50: 1290 nM
  TGI: 13.3 µM
[6]
  GI50: 14.4 µM
  TGI: 29.5 µM
[7]
  GI50: 3.38 µM
  TGI: 13.2 µM
[8]
  GI50: 5.03 µM
  TGI: 18.1 µM
[9]
  GI50: 4.47 µM
  TGI: 16.9 µM
[10]
  GI50: 4.93 µM
  TGI: 22.7 µM
[11]
  GI50: 12.1 µM
  TGI: 25.1 µM
[12]
  GI50: 4.46 µM
  TGI: 17 µM
[13]
  GI50: 1780 nM
  TGI: 5.68 µM
[14]
  GI50: 3.14 µM
  TGI: 14.9 µM
[15]
  GI50: 15.8 µM
  TGI: 36.1 µM
[16]
  GI50: 11.5 µM
  TGI: 25.7 µM
[17]
  GI50: 5.37 µM
  TGI: 18.4 µM
[18]
  GI50: 4.03 µM
  TGI: 18.4 µM
[19]
  GI50: 12.2 µM
  TGI: 26.7 µM
[20]
  GI50: 3.17 µM
  TGI: 29.5 µM
[21]
  GI50: 3.33 µM
  TGI: 14 µM
[22]
  GI50: 17.9 µM
  TGI: 43.6 µM
[23]
  GI50: 2330 nM
  TGI: 4.79 µM
[24]
  GI50: 5.29 µM
  TGI: 19.5 µM
[25]
  GI50: 2240 nM
  TGI: 6.17 µM
[26]
  GI50: 11.6 µM
  TGI: 25.2 µM
[27]
  GI50: 12.5 µM
  TGI: 25.3 µM
[28]
  GI50: 3.51 µM
  TGI: 15 µM
[29]
  GI50: 12 µM
  TGI: 25.5 µM
[30]
  GI50: 3.85 µM
  TGI: 14.4 µM
[31]
  GI50: 4.74 µM
  TGI: 18.8 µM
[32]
  GI50: 3.31 µM
  TGI: 16.6 µM
[33]
  GI50: 8.04 µM
  TGI: 21.5 µM
[34]
  GI50: 1860 nM
  TGI: 3.5 µM
[35]
  GI50: 1590 nM
  TGI: 4.95 µM
[36]
  GI50: 2100 nM
  TGI: 7.06 µM
[37]
  GI50: 5.81 µM
  TGI: 19.2 µM
[38]
  GI50: 9.11 µM
  TGI: 22.3 µM
[39]
  GI50: 5.33 µM
  TGI: 18.4 µM
[40]
  GI50: 3.93 µM
  TGI: 17.3 µM
[41]
  GI50: 2960 nM
  TGI: 10.5 µM
[42]
  GI50: 7 µM
  TGI: 21.6 µM
[43]
  GI50: 2960 nM
  TGI: 10.6 µM
[44]
  GI50: 4.51 µM
  TGI: 18.9 µM
[45]
  GI50: 11 µM
  TGI: 24.2 µM
[46]
  GI50: 8.8 µM
  TGI: 23.6 µM
[47]
  GI50: 7.99 µM
  TGI: 23.5 µM
[48]
  GI50: 2990 nM
  TGI: 11.5 µM
[49]
  GI50: 1310 nM
  TGI: 4.89 µM
[50]
  GI50: 3.69 µM
  TGI: 14.7 µM
[51]
  GI50: 4.61 µM
  TGI: 17.2 µM
[52]
  GI50: 3.36 µM
  TGI: 11.3 µM
[53]
  GI50: 3.48 µM
  TGI: 15.8 µM
[54]
  GI50: 13 µM
  TGI: 26.1 µM
[55]
  GI50: 9.86 µM
  TGI: 21.6 µM
[56]
  GI50: 7.22 µM
  TGI: 20.3 µM
